target: AAK1 (amino acids T27-A365) (Homo sapiens (Human), UniProt Q2M2I8); test: AAK1 pSENs assay; assay type: biochemical; conditions: ratio of AAK1 pSENs activity to GAK pSENs activity
Procedure: (§1) The recombinant proteins were independently expressed in Esherichia coli BL21(DE3) cells cultured in Luria-Bertani (LB) medium until OD600 reached 0.6-0.8, then cooled to 15° C., and supplemented with 0.5 mM isopropyl 1-thio-D-galactopyranoside (IPTG) induce protein expression 16 h. Cells were harvested and resuspended in lysis buffer (50 mM HEPES pH 7.5, 500 mM NaCl, 5 mM imidazole, 5% glycerol, 0.5 mM Tris (2-carboxyethyl) phosphine (TCEP), cOmplete Protease Inhibitor Tablet (Roche)) and lysed by microfluidics high pressure homogenizer (UH-06, Union-Biotech). Proteins were purified using Ni-Affinity chromatography (His FF column, Bestchrom) and eluted stepwise in binding buffer with 20-300 mM imidazole. Removal of the hexahistidine tag was performed at 4° C. overnight using recombinant TEV protease and reacted with BirA to obtain the corresponding biotinylated-AAK1. BIKE or GAK proteins. Further separated in the reverse Strep column (Strep-Tactin® XT, IBA). The Biotin elution sample was collected containing untagged biotinylated protein was then purified by Ion-exchange chromatography (Mono Q 10/100 GL, Cytiva) and Size-exclusion chromatography (HiLoad 16/600 Superdex 200 pg, Cytiva). The pure protein was stored in a storage buffer 50 mM HEPES (pH 7.5), 300 mM NaCl, 5% glycerol at −80° C. Protein were characterized by SDS-PAGE. LC-MS and aSEC.
This example describes one illustrative method for determining the IC50 of the compounds of the present invention against AAK1 (amino acids T27-A365). AAK1 protein was dissolved at 20 nM in 1× enzyme solution (50 mM HEPES pH7.5, 10 mM MgCl2, 1 mM DTT, 1% glycerol, 0.5 mM EGTA, 0.01% Briji35, 0.02% BSA) and 12.5 ul was incubated with 250 nl DMSO or 250 nl compound in DMSO at 25° C. for 15 min. The reaction was started by addition of 12.5 ul of 30 uM AQT0759 (Assayquant, CSKS-AQT0759B) and 70 uM ATP which were diluted in 1× substrate dilution buffer (50 mM HEPES pH7.5, 10 mM MgCl2, 1 mM DTT, 1% glycerol, 0.5 mM EGTA, 0.01% Briji35).

Sequence of AAK1 (amino acids T27-A365) (Q2M2I8 27-365): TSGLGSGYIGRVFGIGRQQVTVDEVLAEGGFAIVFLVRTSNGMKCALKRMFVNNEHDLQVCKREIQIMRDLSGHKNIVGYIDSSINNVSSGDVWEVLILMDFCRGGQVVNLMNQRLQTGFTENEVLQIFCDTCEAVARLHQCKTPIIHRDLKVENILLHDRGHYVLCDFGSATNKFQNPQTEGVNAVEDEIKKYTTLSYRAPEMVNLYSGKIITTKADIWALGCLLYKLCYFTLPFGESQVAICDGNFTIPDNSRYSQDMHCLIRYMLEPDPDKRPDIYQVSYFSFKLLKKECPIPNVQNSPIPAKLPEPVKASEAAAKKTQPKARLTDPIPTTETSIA

| Compound | AAK1:GAK pSENs Selectivity |
| --- | --- |
| C[C@@]1(OC(=O)N2CCN(c3ccn4ncc(-c5cccnc5OC5CC5)c4n3)CC2)CCN(CCO)C1 [Compound I-52, [(3R)-1-(2-hydroxyethyl)-3-methyl-pyrrolidin-3-yl]-4-[3-[2-(cyclopropoxy)-3-pyridyl]pyrazolo[1,5-a]pyrimidin-5-yl]piperazine-1-carboxylate] | A (A: ≤0.015) |
| COc1ncccc1-c1cnn2ccc(N3CCN(C(=O)OC4(C)COC4)CC3)nc12 [RC-1, (3-methyloxetan-3-yl)-4-[3-(2-methoxy-3-pyridyl)pyrazolo[1,5-a]pyrimidin-5-yl]piperazine-1-carboxylate, reference compound] | 0.0083 |
| CN1C[C@@H](OC(=O)N2CCN(c3ccn4nccc4n3)CC2)CC1=O [Compound I-97, [(3S)-1-methyl-5-oxo-pyrrolidin-3-yl]-4-pyrazolo[1,5-a]pyrimidin-5-ylpiperazine-1-carboxylate] | E (E: >1.00) |
| COc1ncccc1-c1cnn2ccc(N3CCN(C(=O)OC4CCNC4)CC3)nc12 (centres unmarked) [Compound I-5, Pyrrolidin-3-yl4-[3-(2-methoxy-3-pyridyl)pyrazolo[1,5-a]pyrimidin-5-yl]piperazine-1-carboxylate] | B (B: 0.016-0.075) |
| CC(C)(C)OC(=O)NCCNc1ccc2ncc(-c3cccnc3OC3CC3)n2n1 [Compound I-129, tert-butyl N-[2-[[3-[2-(cyclopropoxy)-3-pyridyl]imidazo[1,2-b]pyridazin-6-yl]amino]ethyl]carbamate] | C (C: 0.076-0.15) |
| CN1C[C@H](OC(=O)N2CCN(c3ccn4ncc(-c5cccnc5OC5CC5)c4n3)CC2)CC1=O [Compound I-94] | A (A: ≤0.015) |
| CC(C)(C)OC(=O)N1CCC(N2C[C@H](OC(=O)N3CCN(c4ccn5ncc(-c6cccnc6OC6CC6)c5n4)CC3)CC2=O)CC1 [Compound I-31, (R)-1-(1-(tert-Butoxycarbonyl)piperidin-4-yl)-5-oxopyrrolidin-3-yl 4-(3-(2-cyclopropoxypyridin-3-yl)pyrazolo[1,5-a]pyrimidin-5-yl)piperazine-1-carboxylate] | D (D: 0.16-1.00) |
| CC(C)Oc1ncccc1-c1cnn2ccc(N3CCN(C(=O)O[C@]4(C)CCNC4)CC3)nc12 [Compound I-22, [(3R)-3-methylpyrrolidin-3-yl]4-[3-(2-isopropoxy-3-pyridyl)pyrazolo[1,5-a]pyrimidin-5-yl]piperazine-1-carboxylate] | B (B: 0.016-0.075) |
| CN(CCNc1ccn2ncc(-c3cccnc3OC3CC3)c2n1)C(=O)O[C@H]1CO[C@H]2OCC[C@H]21 [Compound I-71, (3R,3aS,6aR)-hexahydrofuro[2,3-b]furan-3-yl (2-((3-(2-cyclopropoxypyridin-3-yl)pyrazolo[1,5-a]pyrimidin-5-yl)amino)ethyl)(methyl)carbamate] | B (B: 0.016-0.075) |
| O=C1C[C@H](OC(=O)N2CCN(c3ccn4ncc(-c5cccnc5OC5CC5)c4n3)CC2)CN1CCOCc1ccccc1 [Compound I-37, [(3S)-1-(2-benzyloxyethyl)-5-oxo-pyrrolidin-3-yl]-4-[3-[2-(cyclopropoxy)-3-pyridyl]pyrazolo[1,5-a]pyrimidin-5-yl]piperazine-1-carboxylate] | A (A: ≤0.015) |
| COc1ncccc1-c1cnn2ccc(N3CCN(C(=O)OC4(C)CCNC4)CC3)nc12 (centres unmarked) [Compound I-8, (3-Methylpyrrolidin-3-yl)-4-[3-(2-methoxy-3-pyridyl)pyrazolo[1,5-a]pyrimidin-5-yl]piperazine-1-carboxylate] | B (B: 0.016-0.075) |
| C[C@@]1(OC(=O)N2CCN(c3ccn4ncc(-c5cccnc5OC5CC5)c4n3)CC2)CCN(CC(N)=O)C1 [Compound I-51, (R)-1-(2-amino-2-oxoethyl)-3-(methylpyrrolidin-3-yl)-4-(3-(2-cyclopropoxypyridin-3-yl)pyrazolo[1,5-a]pyrimidin-5-yl)piperazine-1-carboxylate] | A (A: ≤0.015) |
| CC(C)(C)OC(=O)NCCNc1nc2c(-c3cccnc3OC3CC3)cnn2cc1F [Compound I-124, tert-butyl N-[2-[[3-[2-(cyclopropoxy)-3-pyridyl]-6-fluoro-pyrazolo[1,5-a]pyrimidin-5-yl]amino]ethyl]carbamate] | C (C: 0.076-0.15) |
| CN(CCNc1ccn2ncc(-c3cccnc3OC3CC3)c2n1)C(=O)O[C@]1(C)CCNC1 [Compound I-61, (R)-3-methylpyrrolidin-3-yl (2-((3-(2-cyclopropoxypyridin-3-yl)pyrazolo[1,5-a]pyrimidin-5-yl)amino)ethyl)(methyl)carbamate] | B (B: 0.016-0.075) |
| CN(CCN1C[C@@H](OC(=O)N2CCN(c3ccn4ncc(-c5cccnc5OC5CC5)c4n3)CC2)CC1=O)C(=O)OC(C)(C)C [Compound I-35, (S)-1-(2-((tert-butoxycarbonyl)(methyl)amino)ethyl)-5-oxopyrrolidin-3-yl-4-(3-(2-cyclopropoxypyridin-3-yl)pyrazolo[1,5-a]pyrimidin-5-yl)piperazine-1-carboxylate] | B (B: 0.016-0.075) |
| CN1C[C@@H](OC(=O)N2CCN(c3ccn4ncc(Cl)c4n3)CC2)CC1=O [Compound I-96, [(3S)-1-methyl-5-oxo-pyrrolidin-3-yl]-4-(3-chloropyrazolo[1,5-a]pyrimidin-5-yl)piperazine-1-carboxylate] | E (E: >1.00) |
| C#CC1(OC(=O)N2CCN(c3ccn4ncc(-c5cccnc5OC)c4n3)CC2)CCNC1 (centres unmarked) [Compound I-9, (3-Ethynylpyrrolidin-3-yl) 4-[3-(2-methoxy-3-pyridyl)pyrazolo[1,5-a]pyrimidin-5-yl]piperazine-1-carboxylate] | B (B: 0.016-0.075) |
| [2H]C([2H])([2H])N1C[C@@H](OC(=O)N2CCN(c3nc4c(-c5cc(OC)cnc5OC5CC5)cnn4cc3F)CC2)CC1=O [Compound I-117, [(3S)-5-oxo-1-(trideuteriomethyl)pyrrolidin-3-yl]4-[3-[2-(cyclopropoxy)-5-methoxy-3-pyridyl]-6-fluoro-pyrazolo[1,5-a]pyrimidin-5-yl]piperazine-1-carboxylate] | A (A: ≤0.015) |
| C#C[C@@]1(OC(=O)N2CCN(c3ccn4ncc(-c5cccnc5OC5CC5)c4n3)CC2)CCNC1 [Compound I-16, [(3S)-3-Ethynylpyrrolidin-3-yl]-4-[3-[2-(cyclopropoxy)-3-pyridyl]pyrazolo[1,5-a]pyrimidin-5-yl]piperazine-1-carboxylate] | B (B: 0.016-0.075) |
| CC1(OC(=O)N2CCN(c3ccn4ncc(-c5cccc(C(N)=O)c5)c4n3)CC2)COC1 [Compound I-4, (3-methyloxetan-3-yl)-4-[3-(3-carbamoylphenyl)pyrazolo[1,5-a]pyrimidin-5-yl]piperazine-1-carboxylate] | C (C: 0.076-0.15) |
| CN1C[C@@H](OC(=O)N2CCN(c3ccn4ncc(-c5cccnc5O)c4n3)CC2)CC1=O [Compound I-98, [(3S)-1-methyl-5-oxo-pyrrolidin-3-yl]-4-[3-(2-hydroxy-3-pyridyl)pyrazolo[1,5-a]pyrimidin-5-yl]piperazine-1-carboxylate] | C (C: 0.076-0.15) |
| Oc1ncccc1-c1cnn2ccc(N3CCNCC3)nc12 [Compound I-106, 3-(5-piperazin-1-ylpyrazolo[1,5-a]pyrimidin-3-yl)pyridin-2-ol] | C (C: 0.076-0.15) |
| CC(C)(C)OC(=O)N1CCN(c2ccn3ncc(Cl)c3n2)CC1 [Compound I-100, tert-butyl 4-(3-chloropyrazolo[1,5-a]pyrimidin-5-yl)piperazine-1-carboxylate] | D (D: 0.16-1.00) |
| Brc1cnn2ccc(N3CCNCC3)nc12 [Compound I-103, 3-bromo-5-piperazin-1-yl-pyrazolo[1,5-a]pyrimidine] | E (E: >1.00) |

target: GAK (amino acids Q25-N335) (Homo sapiens (Human), UniProt O14976); test: GAK pSENs assay; assay type: biochemical; conditions: not given
Sequence (O14976 25-335): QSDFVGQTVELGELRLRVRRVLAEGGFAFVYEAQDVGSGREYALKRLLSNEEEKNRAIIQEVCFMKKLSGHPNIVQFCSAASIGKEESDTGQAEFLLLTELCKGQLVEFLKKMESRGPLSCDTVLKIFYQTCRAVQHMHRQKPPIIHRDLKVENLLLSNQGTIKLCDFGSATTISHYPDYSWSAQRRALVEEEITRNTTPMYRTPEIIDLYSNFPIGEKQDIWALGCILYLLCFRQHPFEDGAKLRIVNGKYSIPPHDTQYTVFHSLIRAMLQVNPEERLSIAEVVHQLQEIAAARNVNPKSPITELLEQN
Procedure: as §1
This example describes one illustrative method for determining the IC50 of the compounds of the present invention against GAK (amino acids Q25-N335).

| Compound | IC50 [nM] |
| --- | --- |
| C[C@@]1(OC(=O)N2CCN(c3ccn4ncc(-c5cccnc5OC5CC5)c4n3)CC2)CCN(CCO)C1 [Compound I-52, [(3R)-1-(2-hydroxyethyl)-3-methyl-pyrrolidin-3-yl]-4-[3-[2-(cyclopropoxy)-3-pyridyl]pyrazolo[1,5-a]pyrimidin-5-yl]piperazine-1-carboxylate] | > 1500 |
| [2H]C1([2H])N(C(=O)O[C@H]2CC(=O)N(C)C2)C([2H])([2H])C([2H])([2H])N(c2ccn3ncc(-c4cccnc4OC4CC4)c3n2)C1([2H])[2H] [Compound I-73, [(3S)-1-methyl-5-oxo-pyrrolidin-3-yl]-4-[3-[2-(cyclopropoxy)-3-pyridyl]pyrazolo[1,5-a]pyrimidin-5-yl]-2,2,3,3,5,5,6,6-octadeuterio-piperazine-1-carboxylate] | > 1500 |

— patent US20250270222A1, “AP2 ASSOCIATED KINASE 1 INHIBITORS AND USES THEREOF” (Satellos Bioscience Inc., priority 2023, published 2025)
